We go through eleven compounds from US5504104A, “Tricyclic pyrone derivatives as protease inhibitors and antiviral agents” (Warner-Lambert Company, priority 1993, dated 1996).

The target of the first assay is T1, HIV-1 Protease (Human immunodeficiency virus type 1 group M subtype B, UniProt P04585).
T1 construct: HIV-1 Protease: The enzyme is obtained from Bachem Bioscience Inc; purchased Bachem Bioscience Inc
Kind of assay: HIV Protease Inhibition Assay (HPLC of undecapeptide substrate hydrolysis). Type of assay: biochemical. The note with it: 40 μM substrate, 37° C., 5 minutes, pH 4.7, 2% DMSO; read-out: 50% INHIBITION CONCENTRATION
As to the method:
The biological activity of the subject compounds was determined in an HIV Protease Inhibition Assay.
DTT Buffer: 1.0 mM dithiothreitol (DTT) was prepared fresh daily in 0.1% polyethylene glycol (mw 8000) 80 mM NaOAc, 160 mM NaCl, 1.0 mM EDTA, and brought to pH 4.7 with HCl.
HIV-1 Protease: The enzyme is obtained from Bachem Bioscience Inc. The undiluted enzyme is thawed from -80° C. and diluted 50-fold with DTT buffer. The solution is always kept at 0° C. on ice water and used in the experiment within 20 minutes after thawing.
Ensyme Substrates: Substrate III from Bachem Bioscience Inc. is the undecapeptide H-His-Lys-Ala-Arg-Val-Leu-p-Nitrophenylalanine-Glu-Ala-Norleucine-Ser-NH2 (>97% purity). A 200 μM stock solution in DTT buffer is prepared and stored on ice. Substrate solution is prepared fresh daily.
Test Compound: 10 mM inhibitor (I) in dimethyl sulfoxide (DMSO) is diluted to 200 μM with DTT buffer. From the 200 μM stock solution is made a 10 μM stock solution with 2% DMSO in DTT buffer. The two inhibitor solutions are used to make final I!=100, 50, 20, 10, 5, 2, 1, 0.5 and 0 μM with 2% DMSO in DTT buffer in each reaction well (total inhibitor volume of 50 μl).
To each reaction well is added 20 μl of substrate (final concentration of 40 μM), 50 μl of inhibitor (at a concentration such that final dilution will produce the test concentration) and 20 μl of DTT buffer. The reaction plate (96 wells) is incubated at 37° C. for at least 5 minutes.
10 μl of the diluted protease is added to the reaction well while the reaction plate is shaking. Once shaken for 10 seconds, the plate is returned to the heating block at 37° C. (final reaction volume 100 μl.)
The reaction is incubated for 5 minutes at 37° C. The reaction is stopped by placing the reaction plate on the shaker and adding 20 μl of 10% trifluoroacetic acid (TFA) and shaking for 10 seconds. The amount of proteolysis is then determined by separation of noncleaved substrate and two cleaved products with reverse-phase HPLC, while measuring absorbance at 220 nm to determine the relative peak areas of the three components. The relative peak areas are used to calculate % conversion to product as a function of inhibitor concentration. The data is plotted as % Control (the ratio of % conversion is the presence and absence of inhibitor×100) versus inhibitor concentration and fit with the equation Y=100/1+(X/IC50)^A, where IC50 is the inhibitor concentration at 50% inhibition and A is the slope of the inhibition curve.
For `O=c1oc2c(c(O)c1SCc1ccccc1)Cc1ccc(OCc3ccccc3)cc1-2` [Example 11, 4-Hydroxy-8-(phenylmethoxy)-3-(phenylmethyl)thio!indeno 1,2-b!pyran-2(5H)-one], the IC50 worked out at 2200 nM. For `O=c1oc2c(c(O)c1SCc1ccccc1)CCc1ccccc1-2` [Example 4, 5,6-Dihydro-4-hydroxy-3-(phenylmethyl)thio!-2H-naphtho 1,2-b!pyran-2-one], the IC50 came out at 1400 nM. In the case of `O=c1oc2c(c(O)c1SCc1ccccc1)COc1ccccc1-2` [Example 14, 4-Hydroxy-3-(phenylmethyl)thio!-2H,5H-pyrano 3,2-c! 1!bensopyran-2-one], the IC50 was determined as 4000 nM. As for `O=c1oc2c(c(O)c1SCc1ccccc1)CSc1ccccc1-2` [Example 25, 4-Hydroxy-3-(phenylmethyl)thio!-2H,5H-1!bensothiopyrano 4,3-b!pyran-2-one], the IC50 turned out to be 1300 nM. For the compound `O=c1oc2c(c(O)c1SCc1ccccc1)CCc1cc(O)ccc1-2` [Example 9, 5,6-Dihydro-4,8-dihydroxy-3-(phenylmethyl)thio! -2H-naphtho 1,2-b !pyran-2-one], the IC50 is 2500 nM. On the same count and under the same terms, the figure for `O=c1oc2c(c(O)c1SCc1ccccc1)Cc1ccc(O)cc1-2` [Example 3, 4,8-Dihydroxy-3-(phenylmethyl)thio!-indeno 1,2-b!pyran-2(5H)-one] is 700 nM; for `O=c1oc2c(c(O)c1SCCc1ccccc1)Cc1ccccc1-2` [Example 16, 4-Hydroxy-3-(2-phenylethyl)thio!indeno 1,2-b!pyran-2(5H)-one] it is 3500 nM. Take `O=c1oc2c(c(O)c1SCc1ccccc1)Cc1ccccc1-2` [Example 1, 4-Hydroxy-3-(phenylmethyl)thio!-indeno 1,2-b!pyran-2(5H)-one]: the IC50 stood at 1300 nM. For `Cc1cc(C)c2c(c1)-c1oc(=O)c(SCc3ccccc3)c(O)c1CC2` [Example 6, 5,6-Dihydro-4-hydroxy-7,9-dimethyl-3-(phenylmethyl)thio!-2H-naphtho 1,2-b! pyran-2-one], the IC50 is 2000 nM. For the compound `O=C(O)COc1ccc2c(c1)-c1oc(=O)c(SCc3ccccc3)c(O)c1C2` [Example 29, 2,5-Dihydro-4-hydroxy-2-oxo-3-(phenylmethyl)thio!indeno 1,2-b!pyran-8 !oxy!-acetic acid], the IC50 was 1400 nM.

The test system of the next assay is HIV.
Experiment: not given
The note with it: cell-free and cell-mediated; literature; cited from earlier work.
`CC(=O)CC(c1ccccc1)c1c(O)c2ccccc2oc1=O` (stereo not drawn) [Warfarin, 3-(α-acetonylbenzyl)-4-hydroxycoumarin]: the “inhibiting HIV infection” value is “inhibiting cell-free and cell-mediated HIV infection”.
